One block for each compound: values may come before it.
Tests used:
[1] = Cytotoxicity assay in MT-4 cells; assay type: cell-based; details: human, uninfected MT-4 cells, Cell Titer Glo
Method: (§1) Compounds were tested in a high-throughput 384-well assay format for their ability to inhibit the replication of HIV-1 (IIIB) in MT-4 cells. Compounds were serially diluted (1:3) in DMSO on 384-well polypropylene plates and further diluted 200-fold into complete RPMI media (10% FBS, 1% P/S) using the Biotek Micro Flow and Labcyte ECHO acoustic dispenser. Each plate contained up to 8 test compounds, with negative (No Drug Control) and 5 μM AZT positive controls. MT-4 cells were pre-infected with 10 μL of either RPMI (mock-infected) or a fresh 1:250 dilution of HIV-1 IIIB concentrated virus stock. Infected and uninfected MT-4 cells were further diluted in complete RPMI media and added to each plate using a Micro Flow dispenser. After 5 days incubation in a humidified and temperature controlled incubator (37° C.), Cell Titer Glo (Promega) was added to the assay plates and chemiluminescence read using an Envision plate-reader. EC50 values were defined as the compound concentration that causes a 50% decrease in luminescence signal, and were calculated using a sigmoidal dose-response model to generate curve fits. Cytotoxicity Assay in MT-4 Cells Assays were performed as above except uninfected MT-4 cells were added to each well containing test compound. In addition, 10 μM puromycin was added to the last column of each assay plate to assess a base level of cytotoxicity.

[2] = test system: pLai RLuc reporter virus in MT-4 cells; assay: HIV MT-4 serum shift antiviral reporter assay; assay type: cell-based; details: Human immunodeficiency virus 1, MT4, 72 h, read-out: RLUC CCM
Method: Example 48: HIV MT-4 Serum Shift Antiviral Reporter Assay
To quantify the amount of protein binding to human serum, compounds were serially diluted (1:3) in DMSO and acoustically transferred onto 384-well assay plates via a Labcyte ECHO robot. Each plate contained up to 8 test compounds, including negative and positive controls, (DMSO, 5 μM AZT respectively). Assay plates were prepared in duplicate, and tested in either CCM (cell culture media) or HS/CCM (human serum/cell culture media). MT-4 cells were first pre-infected with pLai RLuc reporter virus for 2 h at 37° C., then further diluted in either CCM (RPMI media, 10% FBS, 1% P/S) or HS/CCM (RPMI media, 10% FBS, 50% HS, 1% P/S), and subsequently added to each plate using a Biotek Micro Flow dispenser. After a 72-h incubation in a humidified and temperature controlled incubator (37° C.), Renilla Glo (Promega) was added to all assay plates and chemiluminescence read using an Envision plate-reader. EC50 values were defined as the compound concentration that causes a 50% decrease in luminescence signal, and were calculated using a sigmoidal dose-response model to generate curve fits. To determine the amount of protein binding, EC50 fold shifts (or EC50 shifts) were calculated by dividing EC50 (HS/CCM)/EC50 (CCM). […]

[3] = test system: HIV-1 (IIIB) in MT-4 cells; assay: HIV MT-4 antiviral assay; assay type: cell-based; details: Human immunodeficiency virus 1, MT4, 120 h, 5 days, Cell Titer Glo
Method: Example 47: HIV MT-4 Antiviral and Cytotoxicity Assay
Antiviral Assay in MT-4 Cells
as §1, with “fits.” for “fits. Cytotoxicity Assay in MT-4 Cells Assays were performed as above except uninfected MT-4 cells were added to each well containing test compound. In addition, 10 μM puromycin was added to the last column of each assay plate to assess a base level of cytotoxicity.”

[4] = High throughput microsomal stability assay (human liver microsomes); assay type: in vitro ADME; details: for HLM stability: human liver microsomes, 1 uM compound, NADPH + UDPGA cofactors, 37 C
Method: Example 49: High Throughput Microsomal Stability Assay
Metabolic stability of compounds was assessed using Human, or Rat Liver Microsomal assays (Corning). In this assay, 10 nL compounds at concentration of 1 mM in 100% DMSO were dispensed into 384-well polypropylene plates using the Echo 550 acoustic liquid dispenser (Labcyte®). Each plate contained 384 wells with a single test compound in each well.
A solution of human (Corning® Gentest™ Human Mixed Pooled Microsomes), or rat (Corning® Gentest™ Rat [Sprague-Dawley] Pooled Liver Microsomes) liver microsomes at 2 mg/ml in 100 mM K2HPO4/KH2PO4 pH 7.4 with Alamethicin from Trichoderma viride (Sigma-Aldrich) 0.0225 mg/ml were incubated on ice for 15 minutes. 5 uL of this solution was added to individual wells following 15 minute incubation at room temperature; and supplemented with 5 uL NADPH Regenerating Solution of cofactors (Corning® Gentest™ UGT Reaction Mix) containing 100 mM K2HPO4/KH2PO4 pH 7.4, 2.6 mM NADP+, 6.6 mM glucose-6-phosphate, 6.6 mM MgCl2, 0.8 U/mL glucose-6-phosphate dehydrogenase, 0.1 mM Sodium Citrate, 6.8 mM uridine diphosphate-glucuronic acid. Final concentration of analyte compounds at the beginning of the reaction was 1 uM. The reactions were incubated at 37° C. and time points of 0, 5, 15, 30, 40, 50, 60, and 70 minutes were collected for further analysis. Background data were collected using reactions without analyte compounds.
Upon collection of the reaction time points, samples were quenched with 30 uL of a solution of 72% acetonitrile, 8% methanol, 0.1% formic acid, 19.9% water, and internal standard (IS). Reaction plates were span in a centrifuge at speed of 4,000 rcf for 30 minutes and 4° C., following a dilution of the 10 uL quenched reaction into 40 uL de-ionized water, yielding assay plates.
Assay plates were analyzed using solid-state extraction coupled with quadrupole time-of-flight mass spectrometer, using Agilent QToF 6530 RapidFire 360 system, with C4 type A solid state cartridges. Analysis was performed in either positive or negative ionization modes. Mobile phases contained 0.1% formic acid in water for loading analytes onto solid state extraction cartridges, and 0.1% formic acid in acetonitrile for elution into mass spectrometer in positive ionization mode, or 0.1% acetic acid in water for loading and 0.1% acetic acid in acetonitrile for extraction in negative ionization mode. Peak-area ratios of integrated counts for individual compounds to IS were plotted as semi-logarithmic chart of log vs time. Initial, linear portion of decay was fitted to a linear regression equation to derive half time of a compound decay.
Pharmacological parameters for an analyte compound metabolism were calculated using the following equations: […]
Where. Calculation of In Vitro Intrinsic Clearance
Concentration refers to the protein concentration (mg/mL) in the reaction.
Calculation of In Vivo Intrinsic Clearance
This scales the in vitro intrinsic clearance up to the value that would be predicted for the entire mass of liver tissue (but with no restriction by blood flow). The value depends upon the size of the liver (species-dependent) and the yield of microsomal protein as appropriate (assumed to be species-independent).
Calculation of Predicted Clearance
Hepatic clearance will depend upon the inter-relationship of intrinsic clearance and hepatic blood flow and can be predicted from in vitro data using a variety of approaches.
Calculation of Hepatic Extraction
This is simply the predicted clearance expressed as a proportion of hepatic blood flow. E=CL/QH*100%
Intrinsic clearance of the instant compounds, as well as for reference compounds A-F, were calculated following the procedure above.

SMILES: C[C@H]1CC[C@](C)(O)[C@H]2CN1C(=O)c1c(O)c(=O)c(C(=O)NCc3ccc(F)cc3F)cn12 (single isomer, unassigned) [Example 12]
CC50 at 5 days [1]: 41300 nM | EC50 [2]: 0.61 nM | EC50 [3]: 1.4 nM | HLM stability [4]: 2.5 mL/min/kg | MS Cl improvement ([4]; relative to compound F): 3.3 times relative to compound F

HLM stability [4]: 11.5 mL/min/kg
SMILES: CO[C@@]1(C)C=C[C@H](C)N2C[C@H]1n1cc(C(=O)NCc3c(F)cc(F)cc3F)c(=O)c(O)c1C2=O (single isomer, unassigned) [Example 24]
CC50 at 5 days [1]: 11100 nM | EC50 [3]: 2.2 nM

SMILES: C[C@H]1CC[C@@](C)(O)[C@H]2CN1C(=O)c1c(O)c(=O)c(C(=O)NCc3c(F)cc(F)cc3F)cn12 (single isomer, unassigned) [Example 32]
CC50 at 5 days [1]: 34600 nM | EC50 [2]: 0.43 nM | EC50 [3]: 1.9 nM | HLM stability [4]: 9 mL/min/kg

SMILES: C[C@@H]1CC[C@](C)(O)[C@H]2CN1C(=O)c1c(O)c(=O)c(C(=O)NCc3ccc(F)cc3F)cn12 (single isomer, unassigned) [Example 35]
CC50 at 5 days [1]: 11700 nM | EC50 [2]: 1.45 nM | EC50 [3]: 3.2 nM | HLM stability [4]: 10.3 mL/min/kg

SMILES: CO[C@@H]1CC(F)(F)[C@H](C)N2C[C@H]1n1cc(C(=O)NCc3c(F)cc(F)cc3F)c(=O)c(O)c1C2=O (single isomer, unassigned) [Example 36]
CC50 at 5 days [1]: 27300 nM | EC50 [2]: 0.33 nM | EC50 [3]: 2.6 nM | HLM stability [4]: 3.3 mL/min/kg

SMILES: CO[C@@H]1C[C@@H](F)[C@H](C)N2C[C@H]1n1cc(C(=O)NCc3c(F)cc(F)cc3F)c(=O)c(O)c1C2=O (single isomer, unassigned) [Example 38]
CC50 at 5 days [1]: 25500 nM | EC50 [2]: 0.34 nM | EC50 [3]: 1.8 nM | HLM stability [4]: 3.17 mL/min/kg

SMILES: CO[C@H]1CC[C@H](C)N2C[C@H]1n1cc(C(=O)NCc3c(F)cc(F)cc3F)c(=O)c(O)c1C2=O [Example 1, (3S,6S,7R)-12-hydroxy-6-methoxy-3-methyl-1,11-dioxo-N-(2,4,6-trifluorobenzyl)-1,4,5,6,7,11-hexahydro-3H-2,7-methanopyrido[1,2-a][1,4]diazonine-10-carboxamide]
CC50 at 5 days [1]: 34800 nM | EC50 [2]: 0.55 nM | EC50 [3]: 1.5 nM | HLM stability [4]: 3.5 mL/min/kg | MS Cl improvement ([4]; relative to compound A): 3.2 times relative to compound A

SMILES: C[C@H]1CC[C@H](O)[C@H]2CN1C(=O)c1c(O)c(=O)c(C(=O)NCc3c(F)cc(F)cc3F)cn12 [Example 2, (3S,6S,7R)-6,12-dihydroxy-3-methyl-1,11-dioxo-N-(2,4,6-trifluorobenzyl)-1,4,5,6,7,11-hexahydro-3H-2,7-methanopyrido[1,2-a][1,4]diazonine-10-carboxamide]
CC50 at 5 days [1]: 50000 nM | EC50 [2]: 0.53 nM | EC50 [3]: 1.8 nM | HLM stability [4]: 2.5 mL/min/kg

HLM stability [4]: 2.67 mL/min/kg
SMILES: C[C@H]1C=C[C@H](O)[C@H]2CN1C(=O)c1c(O)c(=O)c(C(=O)NCc3c(F)cc(F)cc3F)cn12 [Example 14, (3S,6S,7R)-6,12-dihydroxy-3-methyl-1,11-dioxo-N-(2,4,6-trifluorobenzyl)-1,6,7,11-tetrahydro-3H-2,7-methanopyrido[1,2-a][1,4]diazonine-10-carboxamide]
CC50 at 5 days [1]: 50000 nM | EC50 [3]: 4.2 nM

HLM stability [4]: 1.83 mL/min/kg
SMILES: C[C@H]1C=C[C@H](O)[C@H]2CN1C(=O)c1c(O)c(=O)c(C(=O)NCc3ccc(F)cc3F)cn12 [Example 20, (3S,6S,7R)—N-(2,4-difluorobenzyl)-6,12-dihydroxy-3-methyl-1,11-dioxo-1,6,7,11-tetrahydro-3H-2,7-methanopyrido[1,2-a][1,4]diazonine-10-carboxamide]
CC50 at 5 days [1]: 30000 nM | EC50 [3]: 2.8 nM

HLM stability [4]: 14 mL/min/kg
SMILES: C[C@H]1C=C[C@H](OC(F)F)[C@H]2CN1C(=O)c1c(O)c(=O)c(C(=O)NCc3c(F)cc(F)cc3F)cn12 [Example 22, (3S,6S,7R)-6-(difluoromethoxy)-12-hydroxy-3-methyl-1,11-dioxo-N-(2,4,6-trifluorobenzyl)-1,6,7,11-tetrahydro-3H-2,7-methanopyrido[1,2-a][1,4]diazonine-10-carboxamide]
CC50 at 5 days [1]: 8910 nM | EC50 [3]: 1.7 nM

HLM stability [4]: 1.83 mL/min/kg
SMILES: [2H]C([2H])([2H])[C@]1(O)C=C[C@H](C)N2C[C@H]1n1cc(C(=O)NCc3ccc(F)cc3F)c(=O)c(O)c1C2=O [Example 30, (1R,10S,13S)—N-[(2,4-difluorophenyl)methyl]-6,13-dihydroxy-10-methyl-5,8-dioxo-13-(trideuteriomethyl)-2,9-diazatricyclo[7.4.1.02,7]tetradeca-3,6,11-triene-4-carboxamide]
CC50 at 5 days [1]: 7480 nM | EC50 [3]: 2.1 nM
